Source: US11618916B2, “Probe for measuring activity of Caspase-1 and composition for diagnosis of inflammatory diseases containing same” (KOREA INSTITUTE OF SCIENCE AND TECHNOLOGY, priority 2018, dated 2023)
Blank lines part the entries; values can stand above or below the compound they belong to.

Tests used:
[1] = tested on: T1, probe for measuring the activity of caspase-1 prepared in Example 4
T1 sequence: GWEHDGK

Alzheimer's animal model = assay: Imaging of Alzheimer's animal model; type: in vivo, B6SJL-Tg (APPSwFILon, PSEN1*M146L*L286V)6799Vas/Mmjax) mice
Method: In order to establish an Alzheimer's animal model, 3- to 6-month-old B6SJL-Tg (APPSwFILon, PSEN1*M146L*L286V)6799Vas/Mmjax) mice acquired from the […] (Bar Harbor, USA) were accustomed for a week and then reared in animal plastic cages, with 4 mice per cage. The cage was controlled with artificial lighting for 12 hours from 7 am to 7 pm, indoor temperature of 18-23° C. and 40-60% humidity. Clean water and feed were given freely. An Alzheimer's animal model was induced through genetic APP mutation. Amyloid beta, which is the cause of dementia, is accumulated from 3 months later and form aggregates 4 months later. […] A control group (pre) was not subjected to the genetic mutation.

[2] = tested on: colitis animal model (DSS); assay: Imaging of DSS colitis animal model; type: in vivo, C57BL/6 mice; details: DSS vs normal
Method: In order to establish a colitis animal model, 8-week-old C57BL/6 mice acquired from Nara Bio were accustomed for a week and then reared in animal plastic cages, with 4 mice per cage. The cage was controlled with artificial lighting for 12 hours from 7 am to 7 pm, indoor temperature of 18-23° C. and 40-60% humidity. Clean water and feed were given freely. Colitis was induced by providing the experimental animal with drinking water containing 3% dextran sodium sulfate (DSS). […] Because the body weight of the colitis animal model decreases proportionally to the progress of the disease, the probe for measuring the activity of caspase-1 of Example 4 was administered on day 6, when the body weight was decreased to 80%, for imaging. As a control group (normal), a non-colitis-induced group was prepared by providing normal drinking water to the experimental animal.

caspase-1 enzyme [3] = molecular target: T2, caspase-1 enzyme (Homo sapiens, UniProt P29466); assay: Fluorescence restoration depending on caspase-1 enzyme concentration; type: biochemical; details: FIG. 3B
T2 sequence (P29466 120-297 limits assumed): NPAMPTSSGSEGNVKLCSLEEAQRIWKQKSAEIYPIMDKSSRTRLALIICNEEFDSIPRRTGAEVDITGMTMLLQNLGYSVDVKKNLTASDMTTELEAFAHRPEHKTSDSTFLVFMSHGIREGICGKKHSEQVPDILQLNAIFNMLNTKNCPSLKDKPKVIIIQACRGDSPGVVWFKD
T2 sequence (P29466 317-404 limits assumed): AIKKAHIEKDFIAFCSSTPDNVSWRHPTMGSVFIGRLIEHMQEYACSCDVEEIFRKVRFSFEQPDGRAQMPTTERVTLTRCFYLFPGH
Method: In order to investigate the fluorescence of the probe for measuring the activity of caspase-1 prepared in Example 4 depending on the concentration of the caspase-1 enzyme, the change in fluorescence with time was analyzed and evaluated using the caspase-1 enzyme at various concentrations (0, 2.5, 5, 7.5 and 10 units).
First, the caspase enzyme of various concentrations (0, 2.5, 5, 7.5 and 10 units) was dissolved in a reaction buffer (0.5 mM HEPES, pH 7.2, 50 mM calcium chloride, 0.1% CHAPS, 10 mM EDTA, 5% glycerol, 10 mM DTT) and incubated at 37° C. for 1 hour. After transferring 200 μL of the caspase enzyme activated through the procedure to each well of a 96-well plate and then incubating with the probe for measuring the activity of caspase-1 of Example 4 at 37° C., the restoration of fluorescence with time was observed by fluorescence spectroscopy.
The fluorescence image for each reaction solution is shown at the bottom of FIG. 3B.

[4] = tested on: inflammation-induced animal model; assay: Detection of inflammation in LPS/ATP inflammation-induced animal model, IVIS Lumina imaging; type: in vivo, C57BL/6 mice
Method: The caspase-1 enzyme is activated due to various factors. Among them, the most representative method is to activate inflammasome by administering LPS or ATP which induces early inflammation response. In Test Example 5, it was confirmed using the probe for measuring the activity of caspase-1 of Example 4 that the administration of LPS and ATP induced the activation of inflammasome, which is an early inflammation response. In this test example, an experiment was carried out using an inflammation-induced animal model in order to investigate whether the probe for measuring the activity of caspase-1 of Example 4 works well in vivo, too. In order to establish the inflammation-induced animal model, 8-week-old C57BL/6 mice acquired from Nara Bio were accustomed for a week and then reared in animal plastic cages, with 4 mice per cage. The cage was controlled with artificial lighting for 12 hours from 7 am to […], indoor temperature of 18-23° C. and 40-60% humidity. Clean water and feed were given freely. Then, physiological saline (control group), 20 μg of LPS and 50 mM ATP (Ms1 test group) or 20 μg of LPS and 100 mM ATP (Ms2 test group) was injected into the left sole of the experimental animal. After intravenously injecting the probe for measuring the activity of caspase-1 prepared in Example 4 with 3-day intervals, the respective groups were imaged with IVIS Lumina with 30-minute intervals.

caspase-1 enzyme [5] = molecular target: T2, caspase-1 enzyme; assay: Specific activity of probe: fluorescence restoration with caspase enzymes (caspase-1, 3, 8, 11) or caspase-1 inhibitor; type: biochemical; details: caspase-1, 3, 8, 11 at 2 units or caspase-1 inhibitor; 37° C.; FIG. 3A
Method: In order to investigate whether the probe for measuring the activity of caspase-1 prepared in Example 4 is specifically cleaved by the caspase-1 enzyme and restores fluorescence, the change in fluorescence with time was analyzed and evaluated using various caspase enzymes (caspase-1, 3, 8 and 11) and a caspase-1 inhibitor.
First, a caspase enzyme or a caspase-1 inhibitor was dissolved in a reaction buffer (0.5 mM HEPES, pH 7.2, 50 mM calcium chloride, 0.1% CHAPS, 10 mM EDTA, 5% glycerol, 10 mM DTT) and then incubated at 37° C. for 1 hour. All the enzymes were used at the same concentration of 2 units. After transferring 200 μL of the caspase enzyme activated through the procedure to each well of a 96-well plate and then incubating with the probe for measuring the activity of caspase-1 of Example 4 at 37° C., the restoration of fluorescence with time was observed by fluorescence spectroscopy.
The photographs at the bottom of FIG. 3A show the fluorescence images of the respective reaction solutions. (+)Cas-1 was treated with the caspase-1 enzyme, (+)cas-1 inhibitor was treated with the caspase-1 inhibitor, (+)cas-3 was treated with the caspase-3 enzyme, (+)cas-8 was treated with the caspase-8 enzyme, and (+)cas-11 was treated with the caspase-11 enzyme.

THP-1 monocytes = assay: Fluorescence restoration in LPS/ATP-treated cells, fluorescence microscope; type: cell-based; details: THP-1 treated with 1.5 μg/mL LPS and 5 mM ATP, probe 3.5 hours later; vs control without LPS/ATP; FIG. 4B
Method: THP-1 monocytes were placed on a 96-well plate and treated with 1.5 μg/mL LPS and 5 mM ATP one day later. 3.5 hours later, the probe for measuring the activity of caspase-1 prepared in Example 4 was administered. Then, after culturing for 24 hours, fluorescence restoration by the probe for measuring the activity of caspase-1 in the cells was analyzed with a fluorescence microscope.
Control was treated with neither LPS nor ATP.
LPS and ATP are known to activate caspase-1. LPS is a primary signal occurring in the early stage of inflammation and ATP is a secondary signal. […] That is to say, it was confirmed that the probe for measuring the activity of caspase-1 of the present disclosure can accurately measure caspase-1 activated by inflammation response.

Compound: caspase-8 enzyme
- restoration of fluorescence with time by photoluminescence (PL) after cleavage of the probe [1]: restores fluorescence specifically only in the presence of caspase-1 at all times

Compound: caspase-11 enzyme
- restoration of fluorescence with time by photoluminescence (PL) after cleavage of the probe [1]: restores fluorescence specifically only in the presence of caspase-1 at all times

Compound: caspase-1 enzyme
- restoration of fluorescence with time by photoluminescence (PL) after cleavage of the probe [1]: restores fluorescence specifically only in the presence of caspase-1 at all times

- concentration limit of the caspase-1 enzyme that could be measured (caspase-1 enzyme [3]): 7.5 units
Compound: CCN(CC)c1ccc2nc3ccc(/N=N/c4ccc(N(C)CCCC(=O)NCCCCC(NC(=O)CNC(=O)[C@H](CC(=O)O)NC(=O)[C@H](Cc5c[nH]cn5)NC(=O)[C@H](CCC(=O)O)NC(=O)[C@H](Cc5c[nH]c6ccccc56)NC(=O)CNC(=O)CCCCCCCN5/C(=C/C=C/C=C/C6=[N+](CC)c7ccc8c(S(=O)(=O)O)cc(S(=O)(=O)O)cc8c7C6(C)C)C(C)(C)c6c5ccc5c(S(=O)(=O)O)cc(S(=O)(=O)O)cc65)C(=O)O)cc4)cc3[n+](-c3ccccc3)c2c1 (stereo partly shown) [Example 4]
- fluorescence images 90 minutes after intravenous injection (Alzheimer's animal model; Alzheimer's animal models of 3-6 months vs control (pre), FIG. 7A): the fluorescence could be observed in the Alzheimer's animal model from 3 months
- co-localisation of probe fluorescence with caspase-1 antibody staining in brain tissue (Alzheimer's animal model; model of 3 months (TG), 3 hours after probe, FIG. 7E): corresponds exactly to the region immunologically stained with the caspase-1 antibody
- fluorescence from the brain (Alzheimer's animal model; models of 3, 4, 5 and 6 months, FIG. 7B): fluorescence was observed in the brain of the Alzheimer's animal model from 4 months
- fluorescence in quadrisected brain (fluorescence microscope) (Alzheimer's animal model; models of 3-6 months, FIG. 7D): the fluorescence was observed clearly in the hippocampal region of the brain
- quantified fluorescence intensity from the brain (Alzheimer's animal model; vs control group (WT), FIG. 7C): significant fluorescence intensity began to be observed starting from the Alzheimer's animal model of 4 months
- fluorescence from the extracted large intestine ([2]; FIG. 6D): Strong red fluorescence was observed in the large intestine extracted from the colitis animal model
- Cy5.5 fluorescence in isolated colon cells (fluorescence microscope, NLRP3 inflammasome co-staining) ([2]; FIG. 6F): only in the colon cells isolated from the colitis animal model
- whole-body fluorescence images after intravenous injection ([2]; day 6, 30-minute intervals, FIG. 6C): red fluorescence was observed clearly in the colitis animal model
- change in fluorescence intensity with caspase-1 enzyme concentration (caspase-1 enzyme [3]; caspase-1 at 0, 2.5, 5, 7.5 and 10 units, 37° C.): increase in fluorescence intensity as the concentration of the caspase-1 enzyme increases
- in-vivo fluorescence depending on the concentration of inflammation-inducing substances (images) ([4]; LPS/ATP into left sole (Ms1: 20 μg LPS + 50 mM ATP; Ms2: 20 μg LPS + 100 mM ATP), probe intravenously, FIG. 5A): the fluorescence was restored better
- quantified fluorescence from the top of the left foot and the left calf ([4]; control, Ms1 and Ms2 test groups, FIG. 5B): exhibits stronger fluorescence
- fluorescence from the groin, ham and lymph node ([4]; control, Ms1 and Ms2 test groups, FIG. 5C): The strongest fluorescence was observed in the ham lymph node closest to the sole
- restoration of fluorescence with time (photoluminescence), specificity among caspase enzymes (caspase-1 enzyme [5]): restores fluorescence specifically only in the presence of caspase-1 at all times
- fluorescence restoration in cells (THP-1 monocytes): the fluorescence of Cy5.5 was restored effectively as compared to the control group

Compound: caspase-3 enzyme
- restoration of fluorescence with time by photoluminescence (PL) after cleavage of the probe [1]: restores fluorescence specifically only in the presence of caspase-1 at all times
